The assay deals with excitotoxically induced lasting vestibular deficits. Put plainly: Kainic acid excitotoxic vestibular lesion in rats, spontaneous nystagmus by infra-red videonystagmography (FK-506 treatment). It counts as in vivo, rat. To be noted: t=24 h. As to the method:
Two inverted 3 mm bolts partially encased in dental acrylic were surgically fixed to the skull of female Long-Evans rats under deep ketamine-xylazine anesthesia using self-tapping surgical screws and cyanoacrylate. Each animal was allowed to recover for 1 week before experiencing 4 training sessions with head fixation (5-10 min) of increasing duration in the week preceding the experiments.
Under visual control using a surgical microscope, each rat received transtympanic injections of 50 μL 15 mM kainic acid in physiological serum with 10 mg/mL benzyl alcohol at t=0 h and 25 μL 15 mM kanic acid in physiological serum with 10 mg/mL benzyl alcohol at t=2 h.
At t=1 h the behaviorally associated vestibular deficits of each transtympanically injected animal was determined using 5 classical criteria each scored on a 0-4 scale: Circling, head-bobbing, degree of head-tilt, tail-hanging reflex deficit and air-righting reflex deficit. […]
Spontaneous eye-movements were recorded at t=1 h and t=24 h in the dark using an ISCAN ETL-200 infra-red videooculography system under head-fixed conditions. […]
The spontaneous nystagmus frequency in videooculography traces recorded at t=1 h (pre-treatment) and t=24 h (chronic deficit) was determined using custom routines written in MatLab R2011b (The Mathworks, Natick, Mass.). […]

`C=CC[C@@H]1/C=C(\C)C[C@H](C)C[C@H](OC)[C@H]2O[C@@](O)(C(=O)C(=O)N3CCCC[C@H]3C(=O)O[C@H](/C(C)=C/[C@@H]3CC[C@@H](O)[C@H](OC)C3)[C@H](C)[C@@H](O)CC1=O)[C@H](C)C[C@@H]2OC` [FK-506, tacrolimus]: for the setting “normalized to group mean at t=1 h, single i.p. injection 2.5 mg/kg at t=1 h, Long-Evans rats, in the dark”, the “normalized chronic spontaneous nystagmus frequency” value turned out to be 26.9±11.8%. Further, the “reduction of lasting vestibular deficits (spontaneous nystagmus in the dark) vs sham” value (single i.p. injection 2.5 mg/kg, p=0.014) was determined as 43%.

The values above are taken from patent US10188695B2, “Calcineurin inhibitors for use in the treatment of lesional vestibular disorders” (Institut National De La Santé Et De La Recherche Médicale, priority 2012, dated 2019).
